From patent US20250235418A1, “Butyrate Analogues and Methods of Use for HIF Stabilization and Treatment of Bowel Disease” (THE REGENTS OF THE UNIVERSITY OF COLORADO, A BODY CORPORATE, priority 2022, published 2025)
Entries after “also recorded” stand apart in the source; their conditions may differ. Like-named read-outs stand apart in the source and are kept apart here.

Key:
[1] = target: T1, PHD2181-402 (Homo sapiens, UniProt Q9GZT9); assay: bioluminescent succinate detection assay of recombinant PHD2181-402 activity/inhibition; assay type: biochemical; conditions: for fold less effective at inhibiting PHD2181-402 than butyrate: compared with butyrate
T1 construct: made in house
Excerpt: To pinpoint if butyrate inhibits PHDs directly, we expressed recombinant PHD derived from the human PHD2 sequence. There are three human PHDs: PHD1, PHD2, and PHD3, with PHD2 being the most abundant and expressed in the majority of tissues, the most important regulator of HIF, particularly HIF-1α, and the only PHD that is embryonically lethal when deleted. PHD1 is exclusively localized to the nucleus, whereas PHD2 is mainly cytoplasmic, and PHD3 is both. […] Sequence comparisons and modeling studies indicate that the PHD2 active site is highly conserved among the PHDs.
IC50s depend on exact experimental conditions, making direct comparisons and global applications difficult.

[2] = system: PHDs; conditions: range across studies, assay conditions vary; read-out: reported IC50s; cited from earlier work
[3] = system: PHD (2-OG accumulation) in T84 IECs; assay: 2-OG levels in T84 cells as biomarker of PHD inhibition; assay type: cell-based; conditions: 3 h, 10 mM butyrate, 30 μM IOX2
Experimental: (B) 2-OG concentrations in T84 cells treated with 10 mM butyrate with or without 1 mM MCPA or 30 μM IOX2 for 3 h
The relationship between butyrate and HIF, were examined whether butyrate influences PHD activity by monitoring 2-OG levels. […] In this, we considered such 2-OG accumulation as a metabolic biomarker of PHD inhibition (FIG. 3A).

[4] = system: HIF-1α / PHDs in murine colon tissue; assay: rectal gavage of butyrate or IOX2 in antibiotic SCFA-depleted mice; assay type: in vivo; conditions: 1 h, 100 mM butyrate, 1.5 mM IOX2
[5] = system: HIF1α in caco-2 cells; assay: HIF1α MSD assay and immunoblot in caco-2 cells; assay type: cell-based; conditions: for BNIP3 immunoblot over time: c2bbe cell lysates, various timepoints
Experimental: (A) Structures of butyrate derivatives investigated in initial screen for HIF stabilization. […] (D) Dose response study of HIF1a accumulation in T84 cells treated with decreasing concentrations of MBA and BA for 6 h.
(A) Immunoblots of HIF1a protein over time after exposure of T84 cells to 5 mM BA and MBA. (B) Mesoscale assay of HIF1a protein over time in caco-2 cells treated with 5 mM MBA compared to veh. […] Data are presented as mean+S.E.M, *p<0.05, **p<0.01, ***p<0.001.
HIF1a Mesoscale assay of BA derivatives investigated in caco-2 (A) and T84 (B) intestinal epithelial cells (5 mM, 6 h), identifying MBA as a promising candidate in HIF1a stabilization (Veh=HBSS+).
(§1) Endogenous and non-endogenous butyrate derivatives with specifically chosen functional groups at different positions within the small molecule and assess their effects on HIF stabilization (FIG. 21A). To study a small library of butyrate derivatives we employed an electrochemiluminescence based assay to quantify HIF1α levels using the Meso Scale Discovery (HIF1α MSD assay, http://www.mesoscale.com) technology. Similar to the sandwich enzyme-linked immunosorbent assay (ELISA), this technology captures and detects HIF1α protein using two specific antibodies but utilizes electrochemiluminescence-based signal generation and detection. Using lysates from intestinal epithelial cells (IECs) caco-2 and T84 exposed to a physiological relevant concentration of 5 mM butyrate derivatives for 4h, this assay was employed to determine HIF1α protein concentration. A bona-fide and potent PHD2 inhibitor (IOX4) was used to stabilize HIF1α as a positive control. Various butyrate derivatives increased HIF1α relative concentration in both cell lines compared to low signals detected in untreated lysates. […] We decided to focus on this interesting butyrate derivative for further studies.
(§2) To elucidate the effectiveness of MBA to stabilize HIF1α over time and possibly shine light on how quickly it can be metabolized in-vitro, time-course studies where performed between BA and MBA, IOX4 was used as a positive control. […] Employing the HIF1α MSD assay, we screened for various timepoints in caco-2 cell lysates exposed to MBA (5 mM). […] BNIP3 is involved in cell survival and is a known HIF1α target that is induced through chemical stabilization of HIF or hypoxia. BNIP3 promoter comprises a functional hypoxia response element (HRE) and can be activated by HIF1α.[5] Parallel to our HIF stabilization time course studies, we wanted to assess the transcriptional activity of the stabilized protein over time.

[6] = system: HIF1α in T84 cells; assay: HIF1α immunoblot in T84 cells (MBA vs BA); assay type: cell-based; conditions: for HIF1α stabilization over time (immunoblot): 5 mM BA and MBA, IOX4 positive control
Experimental: (A) Structures of butyrate derivatives investigated in initial screen for HIF stabilization. Immunoblot of HIF1a protein levels in Caco-2 cells (B) and T84 cells (C) exposed to veh (HBSS+), […], or 5 mM butyrate derivatives for 6h. (D) Dose response study of HIF1a accumulation in T84 cells treated with decreasing concentrations of MBA and BA for 6 h.
(A) Immunoblots of HIF1a protein over time after exposure of T84 cells to 5 mM BA and MBA. (B) Mesoscale assay of HIF1a protein over time in caco-2 cells treated with 5 mM MBA compared to veh. (C) HIF1a and HIF target (BNIP3) protein in caco-2 cells exposed to veh (HBSS+), […] or 5 mM MBA. Data are presented as mean+S.E.M, *p<0.05, **p<0.01, ***p<0.001.
as §1, §2

[7] = system: HIF target genes in T84 cells; assay: real-time PCR of HIF target genes BNIP3 and CAIX in T84 cells; assay type: cell-based; conditions: 16h
Experimental: (A) Exposure of T84 cells to Veh, BA or MBA (5 mM, 16 h) induced HIF target gene expression of CAIX and BNIP3. […] (C) Non-targeting control and T84 HIF1b depleted cells were analyzed for HIF1b expression by western blotting, shown with a representative blot. Quantification of HIF1b decrease was performed using ACTB-normalized densitometry. qPCR data was analyzed by One-way ANOVA with Bonferroni for post hoc correction and presented as mean±S.E.M, **p<0.01, ***p<0.001, ****p<0.0001 of three independent experiments.
Following these findings, we then explored if the MBA-induced stabilization of HIF was reflected in the transcriptional regulation of target genes. We utilized real-time PCR to study the influence of MBA mediated HIF stabilization in the induction of established HIF targets, BNIP3 (cell survival) and CAIX (pH regulation).
Furthermore, to confirm MBA-induced HIF transcriptional activity, we quantified the induction of BNIP3 and CAIX by BA or MBA (5 mM, 16h) in lentiviral shRNA-mediated knockdown of HIF1β relative to non-targeting shRNA controls. […] These findings confirm that through MBA exposure, HIF is stabilized and it is transcriptionally active.

[8] = system: HIF regulated targets; assay: intraperitoneal injection in C57BL/6 mice, HIF regulated targets (EPO, GLUT1); assay type: in vivo; conditions: MBA 80 mg/kg, 24h
Experimental: Erythropoietin (EPO) is regulated by HIF stabilization. (A) EPO protein in blood serum was assessed by mesoscale assay (n=6-8). qPCR mRNA expression of HIF target mGLUT1 in kidney (B) and colon tissue (C) (n=3-8). Data analyzed by One-way ANOVA with Tukey for post hoc correction and presented as mean±S.E.M of two independent experiments, *p<0.05, **p<0.01, ***p<0.001, ****p<0.0001 […]
At 24 h, mice were sacrificed followed by exsanguination, extraction of right kidney and distal colon for analysis of HIF stabilization and HIF target gene expression. SHBA induces HIF regulated targets in vivo. Erythropoietin (EPO) is regulated by HIF stabilization. (A) EPO protein in blood serum was assessed by mesoscale assay (n=6-8). (B) qPCR mRNA expression of HIF target mGLUT1 in colon tissue (n=3-4). Data are presented as mean±S.E.M of two independent experiments, *p<0.05, **p<0.01.
A typical physiologic response to hypoxia is the increase in red blood cell production. Naturally, HIF is in charge of this response by regulating cell-type specific gene expression that leads to increased levels of the hormone erythropoietin (EPO).[10] […] We lastly explored the in-vivo effects of MBA in mediating induction of genes tightly regulated by HIF. […] After 24h of treatment, they were sacrificed and quickly exsanguinated to measure EPO levels in serum. […] Furthermore, we studied the induction of GLUT1, another classic HIF target responsible for the transport of various monosaccharides. Kidney and colon tissue were analyzed by real-time PCR to compare BA and MBA head-to-head. […] These findings support the ability of MBA to stabilize HIF in-vivo leading to the induction of classic target genes and transcription of a tightly regulated protein EPO.

[9] = target: T1, PHD2181-402; assay: WaterLOGSY 1D NMR binding to PHD2181-402; conditions: 10 mM SCFA, 25 μM PHD2181-402
Excerpt: Protons attached to C4 were selectively inverted and acted as source of magnetization transfer. […] (G) Protons attached to C2 were selectively inverted.
Measurements were repeated 3 times.
This method enables sensitive and robust detection of binding (dissociation constants as weak as μM to low mM) based on the magnetization transfer between water molecules, proteins, and ligands of interest in close proximity via dipolar proton-proton cross-relaxation (nuclear Overhauser effect, NOE). […] Binding and non-binding ligands can be distinguished in a WaterLOGSY spectrum via their opposite signs in relation to water for their corresponding peaks.
This technique allows for mapping of the ligand pharmacophore by monitoring the response of individual protons to an increase of ROEs contribution to the overall cross relaxation rate.

[10] = calculated from measured IC50 accounting for substrate conversion, n = 4, error: SEM, read-out: True IC50 for PHD2181-402

T1 sequence (Q9GZT9 181-402): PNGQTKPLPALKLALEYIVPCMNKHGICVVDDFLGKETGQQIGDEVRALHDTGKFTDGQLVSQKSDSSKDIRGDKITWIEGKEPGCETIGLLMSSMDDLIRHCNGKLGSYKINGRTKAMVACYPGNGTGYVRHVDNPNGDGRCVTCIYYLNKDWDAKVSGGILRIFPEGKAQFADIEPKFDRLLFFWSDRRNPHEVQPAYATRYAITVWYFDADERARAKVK

Which IC50 [1, 10] does the source give for `CCC(CC)C(=O)O` [2-Ethylbutyrate] here?
The IC50 was 77 ± 6 mM.

Which IC50 [1, 10] does the source give for `CC(O)CC(=O)O` (centres unmarked) [3-Hydroxybutyrate] here?
Its IC50 is 14 ± 1 mM.

What does the source list for `COC(=O)CNC(=O)C(=O)OC` [DMOG, dimethyloxalylglycine, reference compound]?
IC50 [2]: 0.00289 to 4 mM; IC50 ([1]; 1 μM PHD2181-402, 10 μM 2-OG, 10-minute reaction, n=5-12, error: SEM, read-out: true half maximal inhibitory concentration (IC50) for PHD2181-402): 1.9 ± 0.5 mM

With `O=C(O)CNC(=O)c1c(O)c2ccccc2n(Cc2ccccc2)c1=O` [IOX2, reference compound] as the molecule, how does the “2-OG levels compared to control” value [3] read?
The value was “to lesser extent than butyrate”.

And the “colon tissue 2-OG levels after antibiotics” value [4]?
Its value is “rescued”.

And the “mRNA expression of HIF-1α targets Bnip3, Bnip3l, Glu1 after antibiotics” value [4]?
The value was “rescued”.

With `CC(C)(C)OC(=O)c1ccc(-n2[nH]cc(-n3ccnn3)c2=O)nc1` [IOX4, reference compound] as the molecule, how does the “BNIP3 immunoblot over time” value [5] read?
The value was “supported active HIF1α transcription”.

What about the “HIF1α stabilization over time (immunoblot)” value ([6]; T84 cells) of the same molecule?
The value was “no longer effective at the 72h timepoint”.

For `O=C(O)CCCS` [MBA, 4-Mercaptobutyrate], which “HIF target gene induction compared to BA” value ([7]; T84, 5 mM) is on record?
Its value is “more potent than BA; also recorded: more prominent induction of HIF target genes compared to BA”.

What about the “induction of HIF target genes BNIP3 and CAIX” value ([7]; T84, 5 mM) of the same molecule?
Its value is “significant induction”.

What about the “induction of BNIP3 and CAIX in cells lacking HIF1β” value ([7]; T84 HIF1β shRNA knockdown, 5 mM) of the same molecule?
Its value is “complete loss of induction”.

What about the “GLUT1 mRNA in colon tissue” value ([8]; IP, BA 73 mg/kg) of the same molecule?
The value was “significantly increased in colon tissue”.

What about the “GLUT1 mRNA in kidney” value ([8]; IP, BA 73 mg/kg) of the same molecule?
The value was “induction of GLUT1 in kidney”.

What about the “EPO concentration in serum” value ([8]; one IP injection, compared to vehicle, DMOG and BA) of the same molecule?
The value was “significantly higher concentration of EPO”.

And the “BNIP3 immunoblot over time” value [5]?
Its value is “supported active HIF1α transcription”.

And the “HIF1α immunoblot compared with IOX4” value ([5]; caco-2, 5 mM MBA vs IOX4 (10 μM))?
The value was “at least as much as IOX4”.

And the “HIF1α immunoblot compared with butyrate” value ([5]; caco-2, equimolar concentration (5 mM))?
Its value is “exceeding the capabilities of butyrate”.

And the “HIF1α relative concentration over time (MSD assay)” value ([5]; caco-2 cell lysates, 5 mM, up to 72h)?
Its value is “rapidly stabilized (3h)”.

What about the “HIF1α relative concentration (MSD assay)” value ([5]; caco-2 lysates, 5 mM, compared with IOX4) of the same molecule?
The value was “exceeded HIF stabilization in caco-2 compared to the potent IOX4 PHD2 inhibitor”.

And the “HIF1α immunoblot compared with butyrate” value ([6]; T84, equimolar concentration (5 mM))?
The value was “exceeding the capabilities of butyrate”.

What about the “HIF1α stabilization over time (immunoblot)” value ([6]; T84 cells) of the same molecule?
Its value is “observed clearly up to 72h”.

And the “dose response of HIF1α accumulation” value ([6]; T84 cells, decreasing concentrations, 6 h)?
The value was “can stabilize HIF at the low millimolar range”.

For `CC(=O)O` [acetate, Acetic acid, reference compound], which “binding to PHD2181-402 by WaterLOGSY” value [9] is on record?
The value was “no binding”.

And the “fold less effective at inhibiting PHD2181-402 than butyrate” value [1]?
Its value is about 10 fold.

What does the source list for `CCC(=O)O` [propionate, propionic acid, reference compound]?
binding to PHD2181-402 by WaterLOGSY [9]: no binding; fold less effective at inhibiting PHD2181-402 than butyrate [1]: ~10 fold

What does the source list for `CCCCC(=O)O` [valerate, valeric acid, reference compound]?
binding to PHD2181-402 by WaterLOGSY [9]: no binding; fold less effective at inhibiting PHD2181-402 than butyrate [1]: ~3 fold
